From PubChem BioAssay AID2060503 (Molecular Pharmacology Branch, DTP, NCI, 2025)

System: 817829-284-R-J1-PDC complex spheroids, viability
Experiment: Anticancer human tumor 817829-284-R-J1-PDC patient-derived colon adenocarcinoma cell line growth inhibition [GQUAD]
Conditions: for IC50: curve of first compound; for viability, T/C: stronger effect = lower value
Method in brief: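 Viability of tumor cells grown as complex spheroids with endothelial and stromal cells, exposed to drug combinations. Top concentration at or near clinical Cmax (else 10 microM), diluted in half-log increments.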

[1] = second compound 0.0316 µM, first compound 0.0316 µM
[2] = second compound 0.0316 µM, first compound 0.1 µM
[3] = second compound 0.0316 µM, first compound 0.316 µM
[4] = second compound 0.0316 µM, first compound 1 µM
[5] = second compound 0.0316 µM, first compound 3.16 µM
[6] = second compound 0.0316 µM, first compound 10 µM
[7] = second compound 0.1 µM, first compound 0.0316 µM
[8] = second compound 0.1 µM, first compound 0.1 µM
[9] = second compound 0.1 µM, first compound 0.316 µM
[10] = second compound 0.1 µM, first compound 1 µM
[11] = second compound 0.1 µM, first compound 3.16 µM
[12] = second compound 0.1 µM, first compound 10 µM
[13] = second compound 0.316 µM, first compound 0.0316 µM
[14] = second compound 0.316 µM, first compound 0.1 µM
[15] = second compound 0.316 µM, first compound 0.316 µM
[16] = second compound 0.316 µM, first compound 1 µM
[17] = second compound 0.316 µM, first compound 3.16 µM
[18] = second compound 0.316 µM, first compound 10 µM
[19] = second compound 1 µM, first compound 0.0316 µM
[20] = second compound 1 µM, first compound 0.1 µM
[21] = second compound 1 µM, first compound 0.316 µM
[22] = second compound 1 µM, first compound 1 µM
[23] = second compound 1 µM, first compound 3.16 µM
[24] = second compound 1 µM, first compound 10 µM
[25] = second compound 3.16 µM, first compound 0.0316 µM
[26] = second compound 3.16 µM, first compound 0.1 µM
[27] = second compound 3.16 µM, first compound 0.316 µM
[28] = second compound 3.16 µM, first compound 1 µM
[29] = second compound 3.16 µM, first compound 3.16 µM
[30] = second compound 3.16 µM, first compound 10 µM
[31] = second compound 10 µM, first compound 0.0316 µM
[32] = second compound 10 µM, first compound 0.1 µM
[33] = second compound 10 µM, first compound 0.316 µM
[34] = second compound 10 µM, first compound 1 µM
[35] = second compound 10 µM, first compound 3.16 µM
[36] = second compound 10 µM, first compound 10 µM
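Also: spheroids exposed to agents for 7 days before readout.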
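For viability, T/C in this document: percent viability relative to DMSO vehicle control taken as 100%.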

`C=CC(=O)N1CCN(c2nc(=O)n(-c3c(C)ccnc3C(C)C)c3nc(-c4c(O)cccc4F)c(F)cc23)C(C)C1` (centres undefined) + Cc1[nH]c2ccc(F)cc2c1-c1nc2c3cccnc3c3ncccc3c2[nH]1 gave an IC50 (second compound 0.0316 µM) greater than 10000 nM, an IC50 (second compound 0.1 µM) greater than 10000 nM and an IC50 (second compound 0.316 µM) greater than 10000 nM. The IC50 (second compound 1 µM) was greater than 10000 nM, the IC50 (second compound 3.16 µM) was 3260 nM and the IC50 (second compound 10 µM) was less than 31.6 nM. For the same molecule, the viability, T/C [1] was 106%, the viability, T/C [2] was 81% and the viability, T/C [3] was 109%. It also gave a viability, T/C [4] of 74.4%, a viability, T/C [5] of 106% and a viability, T/C [6] of 97.5%. For the same molecule, the viability, T/C [7] was 87.2%, the viability, T/C [8] was 90.1% and the viability, T/C [9] was 88.5%. For the same molecule, the viability, T/C [10] was 91.2%, the viability, T/C [11] was 108% and the viability, T/C [12] was 92.8%. It also gave a viability, T/C [13] of 84.3%, a viability, T/C [14] of 102% and a viability, T/C [15] of 104%. For the same molecule, the viability, T/C [16] was 101%, the viability, T/C [17] was 102% and the viability, T/C [18] was 104%. The viability, T/C [19] was 82.1%, the viability, T/C [20] was 97% and the viability, T/C [21] was 93.6%. It also gave a viability, T/C [22] of 97.6%, a viability, T/C [23] of 98.2% and a viability, T/C [24] of 79.8%. It also gave a viability, T/C [25] of 102%, a viability, T/C [26] of 99.3% and a viability, T/C [27] of 75.7%. The viability, T/C [28] was 68.2%, the viability, T/C [29] was 51.7% and the viability, T/C [30] was 32.4%. The viability, T/C [31] was 11.3%, the viability, T/C [32] was 18.4% and the viability, T/C [33] was 44.3%. The viability, T/C [34] was 15.1%, the viability, T/C [35] was 11.6% and the viability, T/C [36] was 17.1%.

In the case of `COc1cccc2c1C(=O)c1c(O)c3c(c(O)c1C2=O)CC(O)(C(=O)CO)CC3OC1CC(N)C(O)C(C)O1` (centres undefined) + Cc1[nH]c2ccc(F)cc2c1-c1nc2c3cccnc3c3ncccc3c2[nH]1, the IC50 (second compound 0.0316 µM) is reported as 88.3 nM, the IC50 (second compound 0.1 µM) is reported as 94.3 nM and the IC50 (second compound 0.316 µM) is reported as 98.7 nM. For the same molecule, the IC50 (second compound 1 µM) was 84.4 nM, the IC50 (second compound 3.16 µM) was 64 nM and the IC50 (second compound 10 µM) was less than 31.6 nM. For the same molecule, the viability, T/C [1] was 106%, the viability, T/C [2] was 31.4% and the viability, T/C [3] was 35.2%. It also gave a viability, T/C [4] of 9.62%, a viability, T/C [5] of 0.98% and a viability, T/C [6] of 0.2%. For the same molecule, the viability, T/C [7] was 79.8%, the viability, T/C [8] was 46.1% and the viability, T/C [9] was 29.7%. It also gave a viability, T/C [10] of 14%, a viability, T/C [11] of 0.63% and a viability, T/C [12] of 0.15%. It also gave a viability, T/C [13] of 86.2%, a viability, T/C [14] of 44.8% and a viability, T/C [15] of 32.1%. For the same molecule, the viability, T/C [16] was 14.2%, the viability, T/C [17] was 0.67% and the viability, T/C [18] was 0.16%. The viability, T/C [19] was 80.5%, the viability, T/C [20] was 38% and the viability, T/C [21] was 31.3%. It also gave a viability, T/C [22] of 13.7%, a viability, T/C [23] of 1% and a viability, T/C [24] of 0.19%. It also gave a viability, T/C [25] of 80.9%, a viability, T/C [26] of 26.3% and a viability, T/C [27] of 18.9%. It also gave a viability, T/C [28] of 7.18%, a viability, T/C [29] of 0.69% and a viability, T/C [30] of 0.27%. It also gave a viability, T/C [31] of 22.1%, a viability, T/C [32] of 12.8% and a viability, T/C [33] of 11.3%. It also gave a viability, T/C [34] of 3.41%, a viability, T/C [35] of 0.48% and a viability, T/C [36] of 0.46%.
